These results are taken from PubChem BioAssay AID328 (DTP/NCI, 2004).

Several values for one entry are separate records, joined by “and”; a condition that tells them apart may be missing. Equal entries are not always repeated. Toxic doses and inconclusive results are not listed. Non-standard residues stand in square brackets, D forms with d. Residues, ends and D or L forms follow the SMILES beside them. ξ: configuration not given here. *: point of attachment. Cbz = O=C(OCc1ccccc1)*; ξK = NCCCCC(N)C(=O)O

The subject of the assay is BDF1 mice, P388 leukemia ip, median survival T/C. The experiment in a line: NCI In Vivo Anticancer Drug Screen. Data for tumor model P388 Leukemia (intraperitoneal) in B6D2F1 (BDF1) mice. The following applies: endpoint: median survival time, higher = longer survival. The procedure, abridged: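 Vehicle-dosed animals serve as the reference; survival of compound-dosed, tumour-implanted mice is divided by it.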

Where [1] appears, read: dose: 50.0 mg/kg/injection, schedule: Q01DX009 (ip), vehicle: saline with Tween-80.
The mark [2] stands for this setting: dose: 50.0 mg/kg/injection, schedule: Q04DX003 (ip), vehicle: saline with Tween-80.
The mark [3] stands for this setting: dose: 100.0 mg/kg/injection, schedule: Q01DX009 (ip), vehicle: saline with Tween-80.
Where [4] appears, read: dose: 100.0 mg/kg/injection, schedule: Q04DX003 (ip), vehicle: saline with Tween-80.
Setting [5] is: dose: 200.0 mg/kg/injection, schedule: Q01DX009 (ip), vehicle: saline with Tween-80.
[6] abbreviates: dose: 200.0 mg/kg/injection, schedule: Q04DX003 (ip), vehicle: saline with Tween-80.
The mark [7] stands for this setting: dose: 400.0 mg/kg/injection, schedule: Q01DX009 (ip), vehicle: saline with Tween-80.
Setting [8] is: dose: 50.0 mg/kg/injection, schedule: Q01DX009 (ip), vehicle: saline.
Setting [9] is: dose: 100.0 mg/kg/injection, schedule: Q01DX009 (ip), vehicle: saline.
Where [10] appears, read: dose: 200.0 mg/kg/injection, schedule: Q01DX009 (ip), vehicle: saline.
The mark [11] stands for this setting: dose: 200.0 mg/kg/injection, schedule: Q04DX003 (ip), vehicle: saline.
Where [12] appears, read: dose: 400.0 mg/kg/injection, schedule: Q04DX003 (ip), vehicle: saline.
Setting [13] is: dose: 100.0 mg/kg/injection, schedule: Q04DX003 (ip), vehicle: saline.
Where [14] appears, read: dose: 12.5 mg/kg/injection, schedule: Q04DX003 (ip), vehicle: saline.
Setting [15] is: dose: 12.5 mg/kg/injection, schedule: Q01DX009 (ip), vehicle: Klucel (hydroxypropylcellulose) (HPC).

As for `CCOC(=O)CSc1nc2nc(Cl)c(Cl)nc2[nH]1`, the T/C is 112 % of control (dose: 3.12 mg/kg/injection, schedule: Q04DX003 (ip), vehicle: saline with Tween-80); 102 % of control (dose: 6.25 mg/kg/injection, schedule: Q04DX003 (ip), vehicle: saline with Tween-80); 100 % of control (dose: 12.5 mg/kg/injection, schedule: Q04DX003 (ip), vehicle: saline with Tween-80); 88 % of control (dose: 25.0 mg/kg/injection, schedule: Q01DX009 (ip), vehicle: saline with Tween-80); 102 % of control (dose: 25.0 mg/kg/injection, schedule: Q04DX003 (ip), vehicle: saline with Tween-80); 106 % of control under setting [1]. The T/C is 95 % of control and 102 % of control under setting [2]; 92 % of control under setting [3]; 103 % of control under setting [4]; 100 % of control under setting [5]; 97 % of control under setting [6]; 106 % of control under setting [7]. Under “dose: 400.0 mg/kg/injection, schedule: Q04DX003 (ip), vehicle: saline with Tween-80”, the T/C was 108 % of control.
Take `O=C(O)C1CC[N-]CC1.O=C(O)C1CC[N-]CC1.O=C(O)C1CC[N-]CC1.O=C(O)C1CC[N-]CC1.[Br][Rh][Br]`: the T/C under setting [8] is 111 % of control; the T/C under setting [9] is 92 % of control and 93 % of control; the T/C under setting [10] is 93 % of control and 117 % of control; the T/C under setting [11] was 116 % of control; the T/C under setting [12] is 119 % of control.
For the compound `Nc1ncc(C2OC(CO)C(O)C2O)c(=O)[nH]1` (centres undefined), the T/C is, setting by setting: (dose: 16.0 mg/kg/injection, schedule: Q01DX005 (ip), vehicle: saline) 123 % of control; (dose: 128.0 mg/kg/injection, schedule: Q01DX005 (ip), vehicle: saline) 150 % of control.
On to `CCCCCCCCCCCCCCCC[N+]1(C)CCN(SN2CC[N+](C)(CCCCCCCCCCCCCCCC)CC2)CC1`, for which the T/C by setting is: under setting [8], 100 % of control; under setting [9], 103 % of control; under setting [13], 104 % of control; under setting [11], 104 % of control.
Consider `c1cc[n+]2c(c1)-c1cccc[n+]1CC2`, for which the T/C (dose: 3.13 mg/kg/injection, schedule: Q04DX003 (ip), vehicle: saline) was 100 % of control; the T/C (dose: 6.25 mg/kg/injection, schedule: Q04DX003 (ip), vehicle: saline) was 95 % of control; the T/C under setting [14] is 100 % of control.
Take `CCN(CC)Cc1cc(Nc2c3ccc([N+](=O)[O-])cc3nc3ccc(OC)cc23)ccc1O`: the T/C under setting [14] was 111 % of control; the T/C (dose: 25.0 mg/kg/injection, schedule: Q01DX009 (ip), vehicle: saline) is 97 % of control; the T/C (dose: 25.0 mg/kg/injection, schedule: Q04DX003 (ip), vehicle: saline) was 111 % of control; the T/C under setting [8] is 104 % of control; the T/C (dose: 50.0 mg/kg/injection, schedule: Q04DX003 (ip), vehicle: saline) was 113 % of control; the T/C under setting [9] is 100 % of control. The T/C under setting [13] was 113 % of control, the T/C under setting [10] is 121 % of control, the T/C under setting [11] was 89 % of control and the T/C under setting [12] was 104 % of control.
Turning to `O=C1NNCc2c1oc1ccccc21`, the T/C under setting [1] was 96 % of control, the T/C under setting [3] is 114 % of control and the T/C under setting [5] was 90 % of control.
`CC1CCC2(C)CCC3(C)C(=CCC4C5(C)CCC(OC(=O)c6ccccc6)C(C)(C)C5CCC43C)C2C1C` (centres undefined): the T/C runs as follows: (dose: 75.0 mg/kg/injection, schedule: Q04DX003 (ip), vehicle: saline with Tween-80) 100 % of control; (dose: 150.0 mg/kg/injection, schedule: Q04DX003 (ip), vehicle: saline with Tween-80) 100 % of control; (dose: 300.0 mg/kg/injection, schedule: Q04DX003 (ip), vehicle: saline with Tween-80) 105 % of control.
Consider `CCC(CC)OC(=O)c1cccc(C)c1`, for which the T/C by setting is: under setting [2], 104 % of control; under setting [4], 108 % of control; under setting [6], 101 % of control.
As to `OCCN(CCO)c1cc(/C=C/c2cccc3ccccc23)nc2ccccc12`, the T/C is, setting by setting: (dose: 50.0 mg/kg/injection, schedule: Q01DX009 (ip), vehicle: saline + alcohol) 100 % of control; (dose: 100.0 mg/kg/injection, schedule: Q01DX009 (ip), vehicle: saline + alcohol) 100 % of control; (dose: 200.0 mg/kg/injection, schedule: Q01DX009 (ip), vehicle: saline + alcohol) 103 % of control.
For the compound `CCCCN(CCCC)CCC(O)c1cc(-c2ccc(C(F)(F)F)cc2)nc(C(F)(F)F)c1` (centres undefined), under setting [1], the T/C was 106 % of control.
Consider `ClCCc1cnc[nH]1`, for which the T/C (dose: 6.25 mg/kg/injection, schedule: Q04DX003 (ip), vehicle: water) was 104 % of control; the T/C (dose: 12.5 mg/kg/injection, schedule: Q04DX003 (ip), vehicle: water) was 108 % of control; the T/C (dose: 25.0 mg/kg/injection, schedule: Q04DX003 (ip), vehicle: water) was 112 % of control; the T/C (dose: 50.0 mg/kg/injection, schedule: Q04DX003 (ip), vehicle: water) is 105 % of control; the T/C (dose: 100.0 mg/kg/injection, schedule: Q04DX003 (ip), vehicle: water) was 98 % of control.
As for `CC(=O)NC(CCCCNC(=O)OCc1ccccc1)C(=O)NCC(=O)O` (centres undefined) (Ac-[ξK](Cbz)-Gly-OH), the T/C was 93 % of control (dose: 50.0 mg/kg/injection, schedule: Q01DX005 (ip), vehicle: saline with Tween-80); 105 % of control (dose: 100.0 mg/kg/injection, schedule: Q01DX005 (ip), vehicle: saline with Tween-80); 100 % of control (dose: 200.0 mg/kg/injection, schedule: Q01DX005 (ip), vehicle: saline with Tween-80).
Consider `CCN1CC1`, for which the T/C (dose: 3.12 mg/kg/injection, schedule: Q01DX001 (ip), vehicle: Klucel (hydroxypropylcellulose) (HPC)) was 113 % of control; the T/C (dose: 6.25 mg/kg/injection, schedule: Q01DX001 (ip), vehicle: Klucel (hydroxypropylcellulose) (HPC)) is 118 % of control; the T/C (dose: 6.25 mg/kg/injection, schedule: Q01DX009 (ip), vehicle: Klucel (hydroxypropylcellulose) (HPC)) is 90 % of control; the T/C (dose: 12.5 mg/kg/injection, schedule: Q01DX001 (ip), vehicle: Klucel (hydroxypropylcellulose) (HPC)) was 86 % of control; the T/C under setting [15] is 86 % of control.
As for `O=C1NC(=O)C(=O)N1`, the T/C (dose: 100.0 mg/kg/injection, schedule: Q01DX001 (ip), vehicle: saline) was 109 % of control; the T/C under setting [3] was 100 % of control; the T/C under setting [9] was 100 % of control; the T/C under setting [13] is 110 % of control; the T/C (dose: 200.0 mg/kg/injection, schedule: Q01DX001 (ip), vehicle: saline) is 100 % of control; the T/C under setting [5] was 104 % of control. In addition, the T/C by setting is: under setting [10], 100 % of control; under setting [11], 95 % of control; (dose: 400.0 mg/kg/injection, schedule: Q01DX001 (ip), vehicle: saline) 100 % of control; under setting [7], 95 % of control; (dose: 400.0 mg/kg/injection, schedule: Q01DX009 (ip), vehicle: saline) 100 % of control; under setting [12], 120 % of control.
In the case of `CCOC(=O)N1CCN(CCCCCOc2ccccc2C2CCCCC2)CC1`, the T/C is, setting by setting: under setting [1], 111 % of control; under setting [3], 120 % of control.
On to `c1ccc2c[n+]3ccccc3cc2c1`, for which the T/C (dose: 6.25 mg/kg/injection, schedule: Q01DX009 (ip), vehicle: saline) was 95 % of control; the T/C (dose: 8.75 mg/kg/injection, schedule: Q04DX003 (ip), vehicle: saline) is 100 % of control; the T/C under setting [15] was 100 % of control; the T/C (dose: 12.5 mg/kg/injection, schedule: Q01DX009 (ip), vehicle: saline) is 104 % of control; the T/C (dose: 17.5 mg/kg/injection, schedule: Q04DX003 (ip), vehicle: saline) was 95 % of control; the T/C (dose: 25.0 mg/kg/injection, schedule: Q01DX009 (ip), vehicle: Klucel (hydroxypropylcellulose) (HPC)) is 95 % of control.
In the case of `O=[As]O`, the T/C reads like this: (dose: 2.0 mg/kg/injection, schedule: Q01DX009 (ip), vehicle: saline) 115 % of control; (dose: 4.0 mg/kg/injection, schedule: Q01DX009 (ip), vehicle: saline) 123 % of control; (dose: 8.0 mg/kg/injection, schedule: Q01DX009 (ip), vehicle: saline) 150 % of control.
For `Cc1ccc2oc(-c3ccccc3)c(O)c(=O)c2c1`, the T/C was 95 % of control under setting [3], 100 % of control under setting [5] and 90 % of control under setting [7].
